From publication PMC4274664, “Arabidopsis cytosolic acyl-CoA-binding proteins ACBP4, ACBP5 and ACBP6 have overlapping but distinct roles in seed development” (Bioscience Reports, 2014)
Like-named read-outs stand apart in the source and are kept apart here.

Key:
rAtACBP6 = target: T1, rAtACBP6 (Arabidopsis thaliana, UniProt P57752); experiment: ITC of acyl-CoA esters binding to rAtACBP6; settings: for n: mean of three experiments±S.D., stoichiometry of ligand-to-protein binding; for ΔG: in kcal/mol
T1 construct: made in house; host or cells: Escherichia coli
T1 sequence (P57752 1-92): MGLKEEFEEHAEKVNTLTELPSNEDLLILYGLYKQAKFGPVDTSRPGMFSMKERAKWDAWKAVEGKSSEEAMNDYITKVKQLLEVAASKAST
Text: (§1) The protein expression plasmids containing full-length AtACBP4 and AtACBP5 cDNA were previously constructed in the vector pRSETB (Invitrogen) as pAT184 and pAT185, respectively. Recombinant (His)6-AtACBP4 and (His)6-AtACBP5 proteins (rAtACBP4 and rAtACBP5) were expressed in Escherichia coli, purified and refolded according to Leung et al.. The coding sequence of AtACBP6 was amplified by PCR with primer pairs ACBP-F1 and ACBP-R1 and cloned into expression vector pEXP5-NT/TOPO (Invitrogen) to generate plasmid pEXP-ACBP6. Sequences of primers are listed in Supplementary Table S1. Recombinant (His)6-AtACBP6 (rAtACBP6) was expressed in E. coli and purified following Chye. The three recombinant proteins were dialysed in 10 mM sodium phosphate buffer (pH 7.0). Protein concentrations were determined by the standard Bradford assay (Bio-Rad).
(§2) Calorimetric titration was performed with a MicroCal iTC200 system (GE Healthcare) at 30°C. Long-chain acyl-CoA esters (Avanti Polar Lipids, Inc.) were dissolved in 10 mM sodium phosphate buffer (pH 7.0) to a final concentration of 0.25, 0.5 and 1 mM. The solution was degassed and loaded into a syringe, while 15 μM rAtACBP6, 6 μM rAtACBP4 or 60 μM rAtACBP5, was placed into the sample cell. For all titrations, 1.8 μl ligand was injected into the sample cell at 150 s intervals with a stirring speed of 1000 rpm. The titrations were completed after 20 injections. All data were collected automatically, and non-specific heat effects were estimated and corrected after saturation following the instructions of the manufacturer. Raw data were integrated and analysed using the Origin v.7.0 software accompanying the calorimeter.

rAtACBP4 = target: T2, rAtACBP4 (Arabidopsis thaliana, UniProt Q9MA55); experiment: ITC of acyl-CoA esters binding to rAtACBP4; settings: for n: mean of three experiments±S.D., stoichiometry of ligand-to-protein binding; for ΔG: in kcal/mol
T2 sequence (Q9MA55 1-668): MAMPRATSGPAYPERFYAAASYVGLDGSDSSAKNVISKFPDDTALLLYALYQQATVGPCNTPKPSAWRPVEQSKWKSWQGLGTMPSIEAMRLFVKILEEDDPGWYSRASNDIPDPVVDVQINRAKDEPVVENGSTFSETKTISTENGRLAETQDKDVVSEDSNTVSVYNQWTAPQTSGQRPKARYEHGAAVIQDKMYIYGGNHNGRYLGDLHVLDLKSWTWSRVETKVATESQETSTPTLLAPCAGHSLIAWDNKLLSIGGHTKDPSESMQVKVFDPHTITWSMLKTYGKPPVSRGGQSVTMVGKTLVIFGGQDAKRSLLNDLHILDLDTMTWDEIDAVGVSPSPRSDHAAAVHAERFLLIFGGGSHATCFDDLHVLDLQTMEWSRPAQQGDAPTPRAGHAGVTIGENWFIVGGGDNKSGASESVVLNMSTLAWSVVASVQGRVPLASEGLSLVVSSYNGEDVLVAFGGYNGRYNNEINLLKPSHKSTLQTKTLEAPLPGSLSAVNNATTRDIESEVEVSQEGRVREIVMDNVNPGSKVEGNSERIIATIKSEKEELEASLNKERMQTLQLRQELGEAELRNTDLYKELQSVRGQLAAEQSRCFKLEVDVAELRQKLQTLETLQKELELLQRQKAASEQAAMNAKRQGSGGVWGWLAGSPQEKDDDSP
Text: as §1, §2

rAtACBP5 = target: T3, rAtACBP5 (Arabidopsis thaliana, UniProt Q8RWD9); experiment: ITC of acyl-CoA esters binding to rAtACBP5; settings: for n: mean of three experiments±S.D., stoichiometry of ligand-to-protein binding; for ΔG: in kcal/mol
T3 sequence (Q8RWD9 1-648): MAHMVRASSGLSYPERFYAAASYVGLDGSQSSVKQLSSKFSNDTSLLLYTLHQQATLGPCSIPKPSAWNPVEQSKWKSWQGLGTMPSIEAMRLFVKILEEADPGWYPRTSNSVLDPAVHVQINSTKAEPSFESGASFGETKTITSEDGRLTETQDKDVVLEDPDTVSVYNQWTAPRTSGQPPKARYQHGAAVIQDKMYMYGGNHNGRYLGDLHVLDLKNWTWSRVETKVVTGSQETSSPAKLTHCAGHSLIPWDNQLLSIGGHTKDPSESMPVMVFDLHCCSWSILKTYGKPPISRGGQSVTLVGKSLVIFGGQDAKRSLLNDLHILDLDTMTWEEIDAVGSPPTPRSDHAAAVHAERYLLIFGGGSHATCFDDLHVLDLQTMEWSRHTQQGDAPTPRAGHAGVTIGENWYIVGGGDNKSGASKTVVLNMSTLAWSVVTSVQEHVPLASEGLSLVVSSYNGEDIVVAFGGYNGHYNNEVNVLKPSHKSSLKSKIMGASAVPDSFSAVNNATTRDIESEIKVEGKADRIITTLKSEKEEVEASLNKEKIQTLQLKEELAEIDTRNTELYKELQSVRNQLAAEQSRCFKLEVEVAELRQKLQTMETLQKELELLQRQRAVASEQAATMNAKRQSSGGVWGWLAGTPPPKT
Text: as §1, §2

[1] = test system: Arabidopsis seeds (Col-0 and acbp double/triple mutants); experiment: Seed germination under ABA treatment; format: in vivo; settings: for seeds germinated / germination rate: 0.2 μM ABA, within 2 days
Description: Seeds of wild-type Arabidopsis Col-0 were purchased from the ABRC (Arabidopsis Biological Resource Center). The double and triple mutants of AtACBP4, AtACBP5 and AtACBP6 were generated by crossing the respective single mutants. To sterilize Arabidopsis seeds, a solution containing 20% bleach and 0.1% (v/v) Tween 20 was used. Seeds were subjected to 20 min vigorous shaking in this solution, washed six times in distilled water, and then spread on MS (Murashige and Skoog) medium (Sigma-Aldrich) containing 2% (w/v) sucrose, and 0, 0.2 or 0.4 μM ABA (abscisic acid). After 4°C stratification for 2 days, the plates were placed under 16 h-light/8 h-dark cycles (22°C) in a tissue culture room. The rates of seed germination were scored when radicle protrusion occurred.

10-kDa bovine ACBP = target: 10-kDa bovine ACBP; set-up: method as in PMID 8166635; settings: read-out: binding affinity; cited from earlier work
yeast ACBP = target: yeast ACBP; set-up: method as in PMID 8093000; settings: read-out: binding affinity; cited from earlier work
[2] = ITC, 30°C, 10 mM sodium phosphate buffer pH 7.0
[3] = ITC, 30°C, 10 mM sodium phosphate buffer pH 7.0, mean of three±S.D.
[4] = ITC, 30°C, 10 mM sodium phosphate buffer pH 7.0, mean of three±S.D., read-out: Kd

SMILES	ΔS (rAtACBP6; [2])	n (rAtACBP6; [2])	ΔH (rAtACBP6; [3]) [kcal/mol]	ΔG (rAtACBP6; [3])	Kd (rAtACBP6; [4]) [µM]	ΔS (rAtACBP4; [2])	n (rAtACBP4; [2])	ΔH (rAtACBP4; [3]) [kcal/mol]	ΔG (rAtACBP4; [3])	Kd (rAtACBP4; [4]) [µM]	ΔS (rAtACBP5; [2])	n (rAtACBP5; [2])	ΔH (rAtACBP5; [3]) [kcal/mol]	ΔG (rAtACBP5; [3])	Kd (rAtACBP5; [4]) [µM]	further results
CCCCC/C=C\C/C=C\CCCCCCCC(=O)SCCNC(=O)CCNC(=O)[C@H](O)C(C)(C)COP(=O)(O)OP(=O)(O)OC[C@H]1O[C@@H](n2cnc3c(N)ncnc32)[C@H](O)[C@@H]1OP(=O)(O)O [18:2, linoleoyl-CoA]	-6.7 cal/(mol·K)	1.1	-12.3 ± 1.4	−10.2±0.2	0.0364 ± 0.0049	-224 cal/(mol·K)	1	-73.7 ± 2.6	−5.8±0.2	73.8 ± 0.3	-14.7 cal/(mol·K)	1	-10.2 ± 0.2	−5.8±0.0	64.1	
CCCCCCCCCCCCCCCCCC(=O)SCCNC(=O)CCNC(=O)[C@H](O)C(C)(C)COP(=O)(O)OP(=O)(O)OC[C@H]1O[C@@H](n2cnc3c(N)ncnc32)[C@H](O)[C@@H]1OP(=O)(O)O [18:0]	-6.6 cal/(mol·K)	1	-12 ± 2.5	−10.0±0.3	0.0606 ± 0.0024	-0.6 cal/(mol·K)	1.1 ± 0.1	-8.9 ± 1	−8.7±1.0	2.7 ± 1.6	-37.2 cal/(mol·K)	1	-17.4 ± 0.1	−6.2±0.0	35.4 ± 1.4	
CCCCCCCCCCCCCC(=O)SCCNC(=O)CCNC(=O)[C@H](O)C(C)(C)COP(=O)(O)OP(=O)(O)OC[C@H]1O[C@@H](n2cnc3c(N)ncnc32)[C@H](O)[C@@H]1OP(=O)(O)O [14:0]	-4.6 cal/(mol·K)	1	-11.6 ± 1.4	−10.2±0.2		-158 cal/(mol·K)	1	-53.5 ± 6.9	−5.8±0.1		7.7 cal/(mol·K)	0.9	-3.7 ± 1.2	−6.1±0.0		Kd (rAtACBP6): 0.0387 ± 0.0045 µM; Kd (rAtACBP4): 65.3 ± 22.6 µM; Kd (rAtACBP5): 41.9 ± 2.2 µM
CC1=CC(=O)CC(C)(C)[C@@]1(O)/C=C/C(C)=C\C(=O)O [ABA, abscisic acid]																seeds germinated ([1]; Col-0 seeds): 60%; seeds germinated ([1]; acbp4acbp5acbp6 seeds): 19%; germination rate ([1]; acbp4acbp5 seeds): 40%; germination rate ([1]; acbp4acbp6 seeds): 32%; germination rate ([1]; acbp5acbp6 seeds): 33%; germination rate in comparison with Col-0 ([1]; all double and triple mutants, 0.4 μM ABA): lower germination rates
CCCCCCCCCCCCCCCC(=O)SCCNC(=O)CCNC(=O)[C@H](O)C(C)(C)COP(=O)(O)OP(=O)(O)OC[C@H]1O[C@@H](n2cnc3c(N)ncnc32)[C@H](O)[C@@H]1OP(=O)(O)O [16:0, palmitoyl-CoA]	-11.5 cal/(mol·K)	1 ± 0.1	-13.7 ± 2.4	−10.2±0.0	0.0359 ± 0.0084	-236 cal/(mol·K)	1	-77.4 ± 2.5	−6.1±0.2	23.5 ± 27.1	-16.7 cal/(mol·K)	0.9	-11.2 ± 0.5	−6.2±0.0	35.7 ± 1	weaker binding than armadillo ACBP (rAtACBP4; rAtACBP4 versus armadillo ACBP): 1000 fold; weaker binding than armadillo ACBP (rAtACBP5; rAtACBP5 versus armadillo ACBP): 1000 fold; Kd (10-kDa bovine ACBP): 4.5 pM; Kd (yeast ACBP): 0.0055 µM
CC/C=C\C/C=C\C/C=C\CCCCCCCC(=O)SCCNC(=O)CCNC(=O)[C@H](O)C(C)(C)COP(=O)(O)OP(=O)(O)OC[C@H]1O[C@@H](n2cnc3c(N)ncnc32)[C@H](O)[C@@H]1OP(=O)(O)O [18:3, linolenoyl-CoA]	-7.7 cal/(mol·K)	1.1	-12.1 ± 1.3	−9.7±0.1	0.0841 ± 0.0029	-300 cal/(mol·K)	1	-96.2 ± 5.3	−5.1±0.0	189 ± 0.5	-7.4 cal/(mol·K)	1.2 ± 0.1	-7.8 ± 1.3	−5.6±0.1	92.4 ± 10.7	
CCCCCCCC/C=C\CCCCCCCC(=O)SCCNC(=O)CCNC(=O)[C@H](O)C(C)(C)COP(=O)(O)OP(=O)(O)OC[C@H]1O[C@@H](n2cnc3c(N)ncnc32)[C@H](O)[C@@H]1OP(=O)(O)O [18:1, oleoyl-CoA]	11.4 cal/(mol·K)	1.9 ± 0.1	-6.7 ± 3.8	−10.2±0.1	0.0453 ± 0.0043	-4.3 cal/(mol·K)	2.1	-6.9 ± 0.1	−5.6±0.0	95.2	-1.8 cal/(mol·K)	0.9	-6.2 ± 0.2	−5.7±0.0	74.4 ± 3.5	n (stoichiometry of ligand-to-protein binding) (rAtACBP6; ITC): 1.9
